{"source": "patent US11291726B2", "about": "(KOREA INSTITUTE OF SCIENCE AND TECHNOLOGY, priority 2018, dated 2022)", "key": {"[1]": {"test_system": "HT-29 cells (human colon cancer) solid tumors", "assay": "Cancer cell accumulation in cancer disease model via fluorescence imaging", "format": "in vivo", "conditions": "HT-29 tumor on left thigh of nude mice, 200 μL intravenously", "method": "The model with a cancer disease was prepared by subcutaneous injection of 1×10^7 HT-29 cells (human colon cancer, Korean Cell Line Bank) on the left thigh of 5-week-old male nude mice (Orientbio Inc., Korea). After 2 weeks of cancer cell transplantation, solid tumors were confirmed to be formed, and then subsequent experiments were performed."}, "[2]": {"assay": "Photothermal efficiency (solution temperature under laser irradiation)", "format": "physicochemical", "conditions": "laser 808 nm, 1 W; followed by temperature decrease due to photodegradation", "source_text": "Such an increase of photothermal efficiency of the ICG-Fe NPs is thought to be due to fluorescence of ICG, which competitively acts on the photothermal reaction and is present within the nanoparticles in a fluorescence-quenched state."}, "nude mice": {"test_system": "nude mice", "assay": "Toxicity in animal models (blood liver levels, liver/kidney tissue staining)", "format": "in vivo", "conditions": "200 μL intravenously, male nude mice, two days later", "source_text": "Two days later, blood and liver/kidney tissues were collected and evaluated for toxicity."}}}
{"smiles": "CC1(C)C(/C=C/C=C/C=C/C=C2\\N(CCCCS(=O)(=O)O)c3ccc4ccccc4c3C2(C)C)=[N+](CCCCS(=O)(=O)[O-])c2ccc3ccccc3c21", "note": "[ICG, indocyanine green]", "values": [{"measurement": "fluorescence at the cancer site (accumulation)", "setting": "[1]", "result": "did not show fluorescence at the cancer site"}, {"measurement": "temperature increase at the beginning of laser irradiation", "setting": "[2]", "result": "about 45 °C"}, {"measurement": "AST/ALT values (blood liver levels)", "setting": "nude mice", "result": "normal levels"}, {"measurement": "immunostained liver/kidney tissues", "setting": "nude mice", "result": "no abnormalities were found"}]}
